Laboratory results: ChEMBL document CHEMBL1201862, “PubChem BioAssay data set” (2004)
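Interpolation was linear, between the two tested concentrations surrounding the appropriate level; five concentrations were tested over 48 hours in 96-well plates. The concentration for 50% growth inhibition is given as GI50.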 Active and inactive are the calls of the source. Cut-off read from the data, not from the text of the source: active = GI50 up to about 1.1 µM and inactive = higher.

Tests used:
Assay in all cases: NCI-60 cell line screen, 48 h
T47D = system: T47D
NCI-H522 = system: NCI-H522
UACC-62 = system: UACC-62
786-0 = system: 786-0
A498 = system: A498
M14 = system: M14
PC-3 = system: PC-3
SW-620 = system: SW-620
UO-31 = system: UO-31
TK-10 = system: TK-10
OVCAR-8 = system: OVCAR-8
KM12 = system: KM12
SNB-75 = system: SNB-75
RXF 393 = system: RXF 393
SNB-19 = system: SNB-19
HCT-116 = system: HCT-116
SR = system: SR
HOP-92 = system: HOP-92
ACHN = system: ACHN
MOLT-4 = system: MOLT-4

Measured: GI50

C[n+]1c(-c2ccc(/C=C/C=N\NC(=O)c3ccc(C(=O)N/N=C\C=C\c4ccc(-c5cn6ccccc6[n+]5C)cc4)cc3)cc2)cn2ccccc21
inactive: T47D > 48.1 µM | NCI-H522 > 100 µM | UACC-62 > 100 µM | 786-0 30.3 µM | A498 > 100 µM | M14 > 100 µM | PC-3 > 100 µM | SW-620 > 100 µM | UO-31 > 100 µM | TK-10 > 86.3 µM | OVCAR-8 > 100 µM | KM12 39.1 µM | SNB-75 > 100 µM | RXF 393 > 96.2 µM | SNB-19 > 63.4 µM | HCT-116 > 100 µM | SR 19.9 µM | HOP-92 > 100 µM | ACHN > 100 µM | MOLT-4 43.6 µM

O=c1c2ccccc2nc(-c2ccccc2)n1/N=C/c1ccccc1[N+](=O)[O-]
inactive: T47D 86.9 µM | NCI-H522 > 53.2 µM | UACC-62 79.6 µM | 786-0 21.9 µM | A498 > 75.2 µM | M14 > 100 µM | PC-3 > 100 µM | SW-620 > 100 µM | TK-10 28.3 µM | OVCAR-8 > 46.2 µM | KM12 57.4 µM | SNB-75 7.41 µM | RXF 393 19.3 µM | SNB-19 17 µM | HCT-116 40.5 µM | SR > 100 µM | HOP-92 29.2 µM | ACHN 27.8 µM | MOLT-4 > 100 µM

COC(=O)Nc1nc2cc(S(=O)(=O)n3nnc4ccccc43)ccc2[nH]1
inactive: T47D 37.8 µM | NCI-H522 36.8 µM | UACC-62 41.5 µM | 786-0 40.2 µM | A498 57 µM | M14 > 100 µM | PC-3 35 µM | SW-620 > 100 µM | UO-31 > 100 µM | OVCAR-8 > 100 µM | KM12 > 100 µM | SNB-75 6.62 µM | RXF 393 14.6 µM | SNB-19 29.9 µM | HCT-116 53.8 µM | SR 75.2 µM | HOP-92 14.5 µM | ACHN 59.4 µM | MOLT-4 > 100 µM

Cc1cc2c(=O)[nH]nc(N)c2c(N)n1
inactive: T47D > 100 µM | NCI-H522 > 100 µM | UACC-62 > 100 µM | 786-0 > 100 µM | A498 > 100 µM | M14 > 100 µM | PC-3 > 100 µM | SW-620 > 100 µM | UO-31 > 100 µM | TK-10 > 100 µM | OVCAR-8 > 100 µM | KM12 > 100 µM | RXF 393 > 100 µM | SNB-19 > 100 µM | HCT-116 > 100 µM | SR > 100 µM | HOP-92 > 100 µM | ACHN > 100 µM | MOLT-4 > 100 µM

CCCCc1cc2c(C)cc(=O)oc2c(O)c1O
inactive: T47D 21.7 µM | NCI-H522 21.5 µM | 786-0 33.9 µM | A498 26.5 µM | M14 31.6 µM | PC-3 21.3 µM | SW-620 28.2 µM | UO-31 20.3 µM | TK-10 85.9 µM | OVCAR-8 31.6 µM | KM12 25.1 µM | SNB-75 27.1 µM | RXF 393 24.8 µM | SNB-19 37.9 µM | HCT-116 30.5 µM | SR 18 µM | HOP-92 19.4 µM | ACHN 33 µM | MOLT-4 25.2 µM

COc1ccc(C(=O)/C=C/c2ccncc2)cc1OC
inactive: T47D 12.6 µM | NCI-H522 7.73 µM | UACC-62 15.5 µM | 786-0 11.4 µM | A498 17.1 µM | M14 14.7 µM | PC-3 16.7 µM | UO-31 14.9 µM | TK-10 16.4 µM | OVCAR-8 15.3 µM | SNB-75 13.5 µM | RXF 393 12.6 µM | SNB-19 18.5 µM | HCT-116 6.44 µM | SR 6.49 µM | HOP-92 14.1 µM | ACHN 14.9 µM | MOLT-4 8.32 µM

COC(OC)C1(c2ccccc2)Oc2ccccc2C1=O (stereo not drawn)
inactive: T47D > 100 µM | NCI-H522 > 100 µM | UACC-62 > 100 µM | 786-0 > 100 µM | A498 > 100 µM | M14 > 100 µM | PC-3 > 100 µM | SW-620 > 100 µM | TK-10 > 100 µM | OVCAR-8 > 100 µM | KM12 > 100 µM | SNB-75 > 100 µM | RXF 393 > 100 µM | SNB-19 > 100 µM | HCT-116 > 100 µM | SR > 100 µM | HOP-92 > 100 µM | ACHN > 100 µM | MOLT-4 68.7 µM
